Data on 3 compounds can be found in US20100048564A1, “FUSED BICYCLIC HETEROARYL DERIVATIVE” (DAIICHI SANKYO COMPANY, LIMITED, priority 2007, published 2010).

For data set [1], the system named is Rat white adipocytes. Description: Adipocyte differentiation inhibition test (Test Example 3). It is filed as cell-based. The conditions noted are these: with Compound A 3.3 nM, 5 days, Oil Red O ABS550, N.D. denotes not calculable; for IC50: Adipocyte, 120 h. As to the method:
Rat white adipocytes included in a white adipocyte culture kit purchased from Primary Cell Co., Ltd. were subjected to this test. A medium included in the white adipocyte culture kit purchased from Primary Cell Co., Ltd. was used as a growth medium or a differentiation-inducing medium.
The whole of the transportation medium was extracted immediately after the arrival of the purchased cells. The growth medium was added in an amount of 5 ml(/25 cm^2-flask), and the cells were cultured for one day. Thereafter, a cell suspension (83,000 cells/mL) was prepared using the growth medium. The cell suspension was dispensed to a 96-well type-I collagen-coated microplate (Becton, Dickinson and Company) at 5,000 to 6,000 cells/well (60 μL/well). A well to which only the growth medium not containing cells was dispensed (blank well) was provided as a blank group in each plate.
3) For the negative control group, DMSO diluted 20-fold with the differentiation-inducing medium was added at 3 μL/well (final DMSO concentration: 0.1% (v/v)) to the wells into which the cells were seeded.
After culturing for five days, the whole of the differentiation-inducing medium was removed from each well, and 60 μL of a 10% (v/v) formaldehyde solution (fixative solution) was added to each well. The cells were incubated at room temperature for 20 minutes. The whole of the fixative solution was removed and 60 μL of a 0.2% (v/v) Triton X-100 solution (Sigma) was dispensed to each well. The cells were incubated at room temperature for five minutes. The whole of the Triton X-100 solution was removed. A fat stain was prepared by dissolving Oil Red 0 (Sigma) in a 60% (v/v) isopropanol solution at 0.3% (w/v), and 60 μL of the fat stain was dispensed to each well. The cells were incubated at room temperature for 10 minutes. The whole of the fat stain was removed, and then 60 μL of a 60% (v/v) isopropanol solution was dispensed and removed. Thus, each well was washed twice. Thereafter, DMSO was added to each well at 100 μL per well, followed by stirring at room temperature for five minutes. […] The degree of adipocyte differentiation (%) of the test compound-added group was calculated assuming that the measured ABS550 of the positive control group was 100% and the measured ABS550 of the negative control group was 0.
N.D. denotes not calculable.

As a reminder, the IC50 is the concentration that inhibits the measured activity by half. A word on the melting point: it is the temperature, or range, at which the solid turns liquid. The compound `Cc1cc(Oc2ccc3nc(COc4cccc(C(=O)O)c4)n(C)c3c2)cc(C)c1N.Cl.Cl` [Example 2, 3-{[6-(4-Amino-3,5-dimethylphenoxy)-1-methyl-1H-benzimidazol-2-yl]methoxy}benzoic acid dihydrochloride] had a melting point of 235 to 239 °C. For the same compound, in data set [1], the IC50 is 12 nM and the “Imax (%)” value was −33%.
Turning to `Cl.Cn1c(COc2cccc(C(=O)O)c2)nc2ccc(Oc3cccc(F)c3)cc21` [Example 8, 3-{[6-(3-Fluorophenoxy)-1-methyl-1H-benzimidazol-2-yl]methoxy}benzoic acid hydrochloride], in data set [1], the IC50 was 53 nM and the “Imax (%)” value was −29%.
Take `Cl.Cn1c(COc2cccc(C(=O)O)c2)nc2ccc(Oc3ccc(Cl)c(F)c3)cc21` [Example 10, 3-{[6-(4-Chloro-3-fluorophenoxy)-1-methyl-1H-benzimidazol-2-yl]methoxy}benzoic acid hydrochloride]: in data set [1], the IC50 is 45 nM and the “Imax (%)” value is listed as −29%.
